Laboratory results taken from US9090593B2, “Bicyclic compounds as Pim inhibitors” (AMGEN INC., priority 2010, dated 2015).
Like-named read-outs stand apart in the source and are kept apart here.

How the values were obtained:
[1] = target: T1, Pim-2 stably transfected into the U2OS human osteogenic sarcoma line (Homo sapiens, UniProt Q9P1W9); experiment: Pim cell assay, phospho-BAD normalized against total BAD, U2OS stably transfected with Pim-2; format: cell-based; conditions: read-out: Pim2_Cell_IC50; note: high dose 31.6 µM
T1 construct: expressed in transfected cells; host or cells: U2OS human osteogenic sarcoma line
Method in brief: (§1)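 U2OS cells stably expressing Pim-1 or Pim-2 were plated overnight at 37 °C, then dosed over a 10-point curve (final 0.3% DMSO; DMSO alone as high control). Lysates assayed for phospho- and total BAD by Meso Scale immunoassay; % phosphoprotein = (2×phospho)/(phospho+total)×100.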

[2] = target: T2, full length recombinant Pim-1 protein (Homo sapiens, UniProt P11309); experiment: Pim-1 enzyme assay (HTRF, phosphorylation of biotinylated-BAD (S112) peptide); format: biochemical; conditions: enzyme assay, Pim-1; read-out: Pim_1_IC50
T2 construct: by full length recombinant Pim-1, Pim-2, or Pim-3 protein; hexahistidine tag followed by a thrombin cleavage site (N); made in house; host or cells: Sf9 (baculovirus) or E. coli (pET28)
Method in brief: (§2)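 Full-length His-tagged Pim-1 or Pim-2 (Sf9 or E. coli expressed, purified) phosphorylated biotinylated BAD (S112) peptide in 60 mM Hepes pH 7.0, 0.05% BSA, 2 mM DTT. Reaction stopped with 3 mM EDTA; phospho-BAD read by HTRF with Eu anti-phospho-BAD antibody and streptavidin-APC. IC50 from percent of control by 4-parameter logistic fit.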

[3] = target: T3, full length recombinant Pim-2 protein (Homo sapiens, UniProt Q9P1W9); experiment: Pim-2 enzyme assay (HTRF, phosphorylation of biotinylated-BAD (S112) peptide); format: biochemical; conditions: enzyme assay, Pim-2; read-out: Pim2_IC50
T3 construct: by full length recombinant Pim-1, Pim-2, or Pim-3 protein; hexahistidine tag followed by a thrombin cleavage site (N); made in house; host or cells: Sf9 (baculovirus) or E. coli (pET28)
Method in brief: as §2

[4] = target: T4, full length recombinant Pim-3 protein (Homo sapiens, UniProt Q86V86); experiment: Pim-3 enzyme assay (HTRF, phosphorylation of biotinylated-BAD (S112) peptide); format: biochemical; conditions: read-out: Pim3 IC50
T4 construct: by full length recombinant Pim-1, Pim-2, or Pim-3 protein; purchased Millipore (UK)
Method in brief: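 Full-length recombinant Pim-3 phosphorylates biotinylated BAD (S112) peptide in 60 mM Hepes pH 7.0, 0.05% BSA, 2 mM DTT; reaction stopped with 3 mM EDTA. Phospho-BAD detected by HTRF (Eu anti-phospho-BAD S112 antibody, streptavidin-APC). IC50 from percent-of-control values fitted to a 4-parameter logistic model.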

[5] = target: T5, Pim-1 stably transfected into the U2OS human osteogenic sarcoma line (Homo sapiens, UniProt P11309); experiment: Pim cell assay, phospho-BAD normalized against total BAD, U2OS stably transfected with Pim-1; format: cell-based; conditions: read-out: Pim1_Cell_IC50
T5 construct: expressed in transfected cells; host or cells: U2OS human osteogenic sarcoma line
Method in brief: as §1

[6] = U2OS cells stably transfected with Pim-2, phospho-BAD, high dose […]
[7] = U2OS cells stably transfected with Pim-1, phospho-BAD, high dose […]

T2 sequence (P11309 whole entry): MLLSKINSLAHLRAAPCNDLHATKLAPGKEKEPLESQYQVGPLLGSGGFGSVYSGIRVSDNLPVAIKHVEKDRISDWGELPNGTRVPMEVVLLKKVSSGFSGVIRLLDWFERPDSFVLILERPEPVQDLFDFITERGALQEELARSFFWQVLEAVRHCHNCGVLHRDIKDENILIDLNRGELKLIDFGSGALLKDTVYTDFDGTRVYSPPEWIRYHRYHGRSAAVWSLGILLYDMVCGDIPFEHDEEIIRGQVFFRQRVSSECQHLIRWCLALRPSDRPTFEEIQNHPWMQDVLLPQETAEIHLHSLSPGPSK
T5 sequence (P11309 whole entry): as above
T1 sequence (Q9P1W9 whole entry): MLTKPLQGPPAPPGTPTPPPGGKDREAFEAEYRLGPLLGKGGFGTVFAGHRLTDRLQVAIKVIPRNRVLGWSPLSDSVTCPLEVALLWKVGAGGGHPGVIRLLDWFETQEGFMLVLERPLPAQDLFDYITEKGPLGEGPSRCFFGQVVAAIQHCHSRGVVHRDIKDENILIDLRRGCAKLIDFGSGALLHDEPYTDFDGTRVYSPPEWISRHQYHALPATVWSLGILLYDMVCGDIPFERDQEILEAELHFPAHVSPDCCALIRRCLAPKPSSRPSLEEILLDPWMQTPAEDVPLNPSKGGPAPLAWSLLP
T3 sequence (Q9P1W9 whole entry): as above

`O[C@H]1CCCN(c2cncc(-c3n[nH]c4ccc(-c5c(F)cccc5F)cc34)n2)C1` [Example 163, (3S)-1-(6-(5-(2,6-difluorophenyl)-1H-indazol-3-yl)-2-pyrazinyl)-3-piperidinol] showed an IC50 [1, 6] greater than 31.6 µM, an IC50 [2] of 0.058 µM and an IC50 [3] of 0.969 µM. For the same compound, the IC50 [4] was 0.049 µM and the IC50 [5, 7] was 1.63 µM.
Compound `FC(F)(F)c1cccc(-c2ccc3[nH]nc(-c4cncc(O[C@@H]5CCCNC5)n4)c3c2)n1` [Example 142, 3-(6-((3R)-3-piperidinyloxy)-2-pyrazinyl)-5-(6-(trifluoromethyl)-2-pyridinyl)-1H-indazole] has an IC50 [1, 6] greater than 31.6 µM, an IC50 [2] of 0.019 µM and an IC50 [3] of 0.087 µM. It also gave an IC50 [4] of 0.006 µM and an IC50 [5, 7] of 0.625 µM.
Work on `COc1cccc(-c2ccc3[nH]nc(-c4cncc(N5CCC(N)CC5)n4)c3c2)n1` [Example 63, 1-(6-(5-(6-methoxy-2-pyridinyl)-1H-indazol-3-yl)-2-pyrazinyl)-4-piperidinamine] yielded an IC50 [1, 6] greater than 31.6 µM, an IC50 [2] of 0.011 µM and an IC50 [3] of 0.161 µM. For the same compound, the IC50 [4] was 0.008 µM and the IC50 [5, 7] was 1.69 µM.
`NC1CCN(c2cncc(-c3n[nH]c4ccc(-c5cn6ccnc6cn5)cc34)n2)CC1` [Example 99, 1-(6-(5-imidazo[1,2-a]pyrazin-6-yl-1H-indazol-3-yl)-2-pyrazinyl)-4-piperidinamine] gave an IC50 [1, 6] greater than 31.6 µM, an IC50 [2] of 0.003 µM and an IC50 [3] of 0.057 µM. For the same compound, the IC50 [4] was 0.005 µM and the IC50 [5, 7] was 4.72 µM.
With `COc1cncc(-c2ccc3[nH]nc(-c4cnc(N5CCC(N)CC5)s4)c3c2)c1` [Example 31, 1-(5-(5-(5-Methoxypyridin-3-yl)-1H-indazol-3-yl)thiazol-2-yl)piperidin-4-amine] the IC50 [1] was 21.6 µM, the IC50 [2] was 0.009 µM and the IC50 [3] was 0.326 µM. It also gave an IC50 [4] of 0.004 µM and an IC50 [5] of 0.6 µM.
For `NC1CCN(c2cncc(-c3n[nH]c4ccc(Br)cc34)n2)CC1` [Example 1, 1-(6-(5-bromo-1H-indazol-3-yl)pyrazin-2-yl)piperidin-4-amine], the IC50 [1, 6] was 8.73 µM, the IC50 [2] was 0.031 µM and the IC50 [3] was 0.023 µM. The IC50 [4] was 0.011 µM and the IC50 [5, 7] was 0.788 µM.
`c1cn2cc(-c3ccc4[nH]nc(-c5cncc(O[C@@H]6CCCNC6)n5)c4c3)ncc2n1` [Example 138, 6-(3-(6-((3R)-3-piperidinyloxy)-2-pyrazinyl)-1H-indazol-5-yl)imidazo[1,2-a]pyrazine] gave an IC50 [1, 6] greater than 31.6 µM, an IC50 [2] of 0.005 µM and an IC50 [3] of 0.185 µM. It also gave an IC50 [4] of 0.014 µM and an IC50 [5, 7] of 0.921 µM.
`CC(C)Oc1cncc(-c2ccc3[nH]cc(-c4ccc5cn[nH]c5c4)c3c2)n1` [Example 221, 6-(5-(6-(1-methylethoxy)-2-pyrazinyl)-1H-indol-3-yl)-1H-indazole] gave an IC50 [1] greater than 31.6 µM, an IC50 [2] of 0.05 µM and an IC50 [3] of 0.506 µM. For the same compound, the IC50 [4] was 0.033 µM and the IC50 [5] was 1.92 µM.
`CCCNC(=O)c1ccc(F)c(-c2ccc3[nH]nc(-c4cncc(N5CCC(N)CC5)n4)c3c2)c1` [Example 39, 3-(3-(6-(4-amino-1-piperidinyl)-2-pyrazinyl)-1H-indazol-5-yl)-4-fluoro-N-propylbenzamide] gave an IC50 [1, 6] of 6.63 µM, an IC50 [2] of 0.007 µM and an IC50 [3] of 0.01 µM. The IC50 [4] was 0.004 µM and the IC50 [5, 7] was 1.62 µM.
`COc1cccc(-c2ccc3[nH]nc(-c4cncc(N5CCC(N)CC5)n4)c3c2)c1F` [Example 4, 1-(6-(5-(2-fluoro-3-methoxyphenyl)-1H-indazol-3-yl)pyrazin-2-yl)piperidin-4-amine] gave an IC50 [1, 6] greater than 31.6 µM, an IC50 [2] of 0.002 µM and an IC50 [3] of 0.035 µM. The IC50 [4] was 0.004 µM and the IC50 [5, 7] was 0.234 µM.
In the case of `NC1CCN(c2cncc(-c3n[nH]c4ccc(N5CCCCC5)cc34)n2)CC1` [Example 90, 1-(6-(5-(1-piperidinyl)-1H-indazol-3-yl)-2-pyrazinyl)-4-piperidinamine], the IC50 [1, 6] is reported as greater than 31.6 µM, the IC50 [2] is reported as 0.023 µM and the IC50 [3] is reported as 0.196 µM. It also gave an IC50 [4] of 0.04 µM and an IC50 [5, 7] of 0.747 µM.
With `NC1CCN(c2cncc(-c3n[nH]c4ccc(-c5cc(C(=O)Nc6ccccc6)ccc5F)cc34)n2)CC1` [Example 45, 3-(3-(6-(4-amino-1-piperidinyl)-2-pyrazinyl)-1H-indazol-5-yl)-4-fluoro-N-phenylbenzamide] the IC50 [1, 6] was greater than 31.6 µM, the IC50 [2] was 0.012 µM and the IC50 [3] was 0.023 µM. It also gave an IC50 [4] of 0.008 µM and an IC50 [5, 7] of 1.56 µM.
In the case of `NC1CCN(c2cncc(-c3n[nH]c4ccc(-c5cc(C(=O)NCc6ccccc6)ccc5F)cc34)n2)CC1` [Example 36, 3-(3-(6-(4-amino-1-piperidinyl)-2-pyrazinyl)-1H-indazol-5-yl)-N-benzyl-4-fluorobenzamide], the IC50 [1, 6] is reported as 6.61 µM, the IC50 [2] is reported as 0.006 µM and the IC50 [3] is reported as 0.007 µM. It also gave an IC50 [4] of 0.002 µM and an IC50 [5, 7] of 2.06 µM.
For `CN(C)C(=O)c1ccc(F)c(-c2ccc3[nH]nc(-c4cncc(N5CCC(N)CC5)n4)c3c2)c1` [Example 40, 3-(3-(6-(4-amino-1-piperidinyl)-2-pyrazinyl)-1H-indazol-5-yl)-4-fluoro-N,N-dimethylbenzamide], the IC50 [1, 6] was 7.06 µM, the IC50 [2] was 0.024 µM and the IC50 [3] was 0.013 µM. The IC50 [4] was 0.016 µM and the IC50 [5, 7] was 2.37 µM.
With `CS(=O)(=O)c1cccc(-c2ccc3[nH]nc(-c4cncc(N5CCC(N)CC5)n4)c3c2)c1` [Example 76, 1-(6-(5-(3-(methylsulfonyl)phenyl)-1H-indazol-3-yl)-2-pyrazinyl)-4-piperidinamine] the IC50 [1, 6] was greater than 31.6 µM, the IC50 [2] was 0.016 µM and the IC50 [3] was 0.187 µM. The IC50 [4] was 0.005 µM and the IC50 [5, 7] was 2.74 µM.
For `C[C@H]1CCNC[C@H]1Oc1cncc(-c2n[nH]c3ccc(-c4c(F)cccc4F)cc23)n1` [Example 199, 5-(2,6-difluorophenyl)-3-(6-(((3S,4S)-4-methyl-3-piperidinyl)oxy)-2-pyrazinyl)-1H-indazole], the IC50 [1, 6] was 3.41 µM, the IC50 [2] was 0.005 µM and the IC50 [3] was 0.016 µM. It also gave an IC50 [4] of 0.004 µM and an IC50 [5, 7] of 0.4 µM.
`Fc1cccc(F)c1-c1ccc2[nH]nc(-c3ccnc(O[C@@H]4CCCNC4)n3)c2c1` [Example 190, 5-(2,6-difluorophenyl)-3-(2-((3R)-3-piperidinyloxy)-4-pyrimidinyl)-1H-indazole] gave an IC50 [1, 6] of 18.8 µM, an IC50 [2] of 0.024 µM and an IC50 [3] of 0.223 µM. For the same compound, the IC50 [4] was 0.036 µM and the IC50 [5, 7] was 1.22 µM.
Work on `N#Cc1cccc(-c2ccc3[nH]nc(-c4cncc(N5CCC(N)CC5)n4)c3c2)c1` [Example 62, 3-(3-(6-(4-amino-1-piperidinyl)-2-pyrazinyl)-1H-indazol-5-yl)benzonitrile] yielded an IC50 [1, 6] greater than 31.6 µM, an IC50 [2] of 0.011 µM and an IC50 [3] of 0.059 µM. For the same compound, the IC50 [4] was 0.007 µM and the IC50 [5, 7] was 0.599 µM.
`Fc1cccc(F)c1-c1ccc2[nH]nc(-c3cncc(OC4CCNC4)n3)c2c1` (stereo not drawn) [Example 187, 5-(2,6-difluorophenyl)-3-(6-(3-pyrrolidinyloxy)-2-pyrazinyl)-1H-indazole] was tested, and the IC50 [1, 6] was 24.2 µM, the IC50 [2] was 0.05 µM and the IC50 [3] was 0.131 µM. The IC50 [4] was 0.022 µM and the IC50 [5, 7] was 1.83 µM.
In the case of `NC1CCN(c2cncc(-c3n[nH]c4ccc(-c5ccccn5)cc34)n2)CC1` [Example 88, 1-(6-(5-(2-pyridinyl)-1H-indazol-3-yl)-2-pyrazinyl)-4-piperidinamine], the IC50 [1, 6] is reported as greater than 31.6 µM, the IC50 [2] is reported as 0.048 µM and the IC50 [3] is reported as 0.685 µM. The IC50 [4] was 0.057 µM and the IC50 [5, 7] was 1.19 µM.
Work on `O=C(NC1CC1)c1cccc(-c2ccc3[nH]nc(-c4cncc(O[C@@H]5CCCNC5)n4)c3c2)c1` [Example 132, N-cyclopropyl-3-(3-(6-((3R)-3-piperidinyloxy)-2-pyrazinyl)-1H-indazol-5-yl)benzamide] yielded an IC50 [1, 6] of 3.05 µM, an IC50 [2] of 0.008 µM and an IC50 [3] of 0.014 µM. It also gave an IC50 [4] of 0.014 µM and an IC50 [5, 7] of 0.245 µM.
In the case of `CCOc1cccc(-c2ccc3[nH]nc(-c4cncc(N5CCC(N)CC5)n4)c3c2)n1` [Example 65, 1-(6-(5-(6-ethoxy-2-pyridinyl)-1H-indazol-3-yl)-2-pyrazinyl)-4-piperidinamine], the IC50 [1, 6] is reported as greater than 31.6 µM, the IC50 [2] is reported as 0.013 µM and the IC50 [3] is reported as 0.274 µM. The IC50 [4] was 0.018 µM and the IC50 [5, 7] was 3.53 µM.
In the case of `NC1CCN(c2cncc(-c3n[nH]c4ccc(-c5ccccc5)cc34)n2)CC1` [Example 75, 1-(6-(5-phenyl-1H-indazol-3-yl)-2-pyrazinyl)-4-piperidinamine], the IC50 [1, 6] is reported as greater than 31.6 µM, the IC50 [2] is reported as 0.007 µM and the IC50 [3] is reported as 0.049 µM. For the same compound, the IC50 [4] was 0.003 µM and the IC50 [5, 7] was 0.48 µM.
With `NC1CCN(c2cncc(-c3n[nH]c4ccc(-c5cncc(F)c5)cc34)n2)CC1` [Example 85, 1-(6-(5-(5-fluoro-3-pyridinyl)-1H-indazol-3-yl)-2-pyrazinyl)-4-piperidinamine] the IC50 [1, 6] was 7.02 µM, the IC50 [2] was 0.005 µM and the IC50 [3] was 0.036 µM. The IC50 [4] was 0.001 µM and the IC50 [5, 7] was 0.176 µM.
